Counter-ions that a name gives are not always drawn.

The test system of this test is Acinetobacter baumannii ATCC17978. In words: Antimicrobial susceptibility testing: 90% growth inhibitory concentration (IC90) determination, Iso-Sensitest broth, OD 600 nm. Format: cell-based. The following applies: Acinetobacter baumannii, ATCC17978, 16 h, 90% growth inhibitory concentration, Acinetobacter baumannii ATCC17978, Iso-Sensitest broth, OD 600 nm over 16 h; read-out: ATCC 17978 IC90. Summed up: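 Growth of bacteria (~5×10^5 CFU/ml, Iso-Sensitest medium, 35±2 °C) was followed by OD at 600 nm at 20-min intervals over 16 h against a 10-point twofold compound series (e.g. 50–0.097 μM final). Concentration giving 90% inhibition in log phase was reported.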
For the compound `Cc1cc(Nc2nccn3c(-c4ccc(OC(F)F)cc4)cnc23)ccc1C(=O)NCCOCCOCCOCCO` [Example 152, 4-[[3-[4-(difluoro-methoxy)phenyl]imidazo [1,2-a]pyrazin-8-yl]amino]-N-[2-[2-[2-(2-hydroxyethoxy)ethoxy]ethoxy]ethyl]-2-methylbenzamide], the IC90 was determined as 1600 nM.
The figure for `Cc1cc(Nc2nccn3c(-c4ccc(OC(F)F)cc4)cnc23)ccc1C(=O)NCCOCCNC(=O)CN1CCNCC1` [Example 153, 4-[[3-[4-(difluoro-methoxy)phenyl]imidazo [1,2-a]pyrazin-8-yl]amino]-2-methyl-N-[2-[2-[(2-piperazin-1-ylacetyl)amino)ethoxy]ethyl] benzamide; hydrochloride] is 2000 nM; for `Cc1cc(Nc2nccn3c(-c4ccc(OC(F)F)cc4)cnc23)ccc1C(=O)NCCOCCNC(=O)C(N)CCCCN` (centres unmarked) [Example 154, N-[2-[2-(2,6-diaminohexanoyl-amino)ethoxy]ethyl]-4-[[3-[4-(difluoromethoxy)phenyl]imidazo [1,2-a]pyrazin-8-yl]amino]-2-methylbenzamide; hydrochloride] it is 2200 nM.
The figure for `Cc1cc(Nc2nccn3c(-c4ccc(OC(F)F)cc4)cnc23)ccc1C(=O)NCCOCCOCCOCCOCCO` [Example 155, 4-[[3-[4-(difluoro-methoxy)phenyl]imidazo [1,2-a]pyrazin-8-yl]amino]-N-[2-[2-[2-[2-(2-hydroxyethoxy)ethoxy]ethoxy]ethoxy]ethyl]-2-methylbenzamide] is 2300 nM; for `COC(=O)COCCOCCNC(=O)c1ccc(Nc2nccn3c(-c4ccc(OC(F)F)cc4)cnc23)cc1C` [Example 156, methyl 2-[2-[2-[[4-[[3-[4-(difluoro-methoxy)phenyl]imidazo [1,2-a]pyrazin-8-yl]amino]-2-methylbenzoyl]amino]ethoxy]ethoxy]acetate] it is 2400 nM.
The figure for `COc1ccc(-c2cnc3c(Nc4ccc(C(=O)NCCCOCC(=O)O)c(C)c4)nccn23)cc1F` [Example 157, 2-[3-[[4-[[3-(3-fluoro-4-methoxyphenyl)imidazo[1,2-a]pyrazin-8-yl]amino]-2-methylbenzoyl]amino]propoxy] acetic acid] is 8100 nM.
As for `Cc1cc(Nc2nccn3c(-c4ccc(OC(F)F)cc4)cnc23)ccc1C(=O)NCCOCC(=O)NCc1nnn[nH]1` [Example 158, 4-[[3-[4-(difluoro-methoxy)phenyl]imidazo [1,2-a]pyrazin-8-yl]amino]-2-methyl-N-[2-[2-oxo-2-(1H-tetrazol-5-ylmethylamino)ethoxy]ethyl] benzamide], the IC90 came out at 8900 nM.
The figure for `CCc1cc(Nc2nccn3c(-c4ccc(Cl)c(F)c4F)cnc23)ccc1C(=O)NCCSCCN` [Example 159, N-[2-(2-aminoethyl-sulfanyl)ethyl]-4-[[3-(4-chloro-2,3-difluorophenyl)imidazo[1,2-a]pyrazin-8-yl]amino]-2-ethylbenzamide] is 210 nM; for `Cc1cc(Nc2nccn3c(-c4ccc(OCC#CCN)c(F)c4F)cnc23)ccc1C(=O)NCCOCCN` [Example 160, 4-[[3-[4-(4-aminobut-2-ynoxy)-2,3-difluorophenyl]imidazo[1,2-a]pyrazin-8-yl]amino]-N-[2-(2-aminoethoxy)ethyl]-2-methylbenzamide] it is 430 nM.
Take `CNCCCCNC(=O)c1ccc(Nc2nccn3c(-c4ccc(OC)c(F)c4)cnc23)cc1C` [Example 161, 4-[[3-(3-fluoro-4-methoxyphenyl)imidazo[1,2-a]pyrazin-8-yl]amino]-2-methyl-N-[4-(methyl-amino)butyl] benzamide; hydrochloride]: the 90% effect concentration (IC90) turned out to be 350 nM.
The figure for `CN(CCOCCN1CCNCC1)C(=O)c1ccc(Nc2nccn3c(-c4ccc(OC(F)F)cc4)cnc23)cc1Cl` [Example 162, 2-chloro-4-[[3-[4-(difluoromethoxy)phenyl]imidazo [1,2-a]pyrazin-8-yl]amino]-N-methyl-N-[2-(2-piperazin-1-yl-ethoxy)ethyl] benzamide; hydrochloride] is 540 nM; for `COc1ccc(-c2cnc3c(Nc4ccc(C(=O)N(C)CCOCCN5CCNCC5)c(Cl)c4)nccn23)cc1F` [Example 163, 2-chloro-4-[[3-(3-fluoro-4-methoxyphenyl)imidazo[1,2-a]pyrazin-8-yl]amino]-N-methyl-N-[2-(2-piperazin-1-ylethoxy)ethyl] benzamide; hydrochloride] it is 570 nM.
The figure for `Cc1cc(Nc2nccn3c(-c4ccc(OC(F)F)cc4)cnc23)ccc1C(=O)NCCOCCN1CCOC(CN)C1` (centres unmarked) [Example 164, N-[2-[2-[2-(aminomethyl)morpholin-4-yl]ethoxy]ethyl]-4-[[3-[4-(difluoro-methoxy)phenyl]imidazo [1,2-a]pyrazin-8-yl]amino]-2-methylbenzamide; hydrochloride] is 970 nM.
The figure for `COc1ccc(-c2cnc3c(Nc4ccc(C(=O)N(CCC#N)CCCCNCCC#N)c(C)c4)nccn23)cc1F` [Example 165, N-(2-cyanoethyl)-N-[4-(2-cyanoethyl-amino)butyl]-4-[[3-(3-fluoro-4-methoxyphenyl)imidazo[1,2-a]pyrazin-8-yl]amino]-2-methylbenzamide] is 1500 nM; for `COc1ccc(-c2cnc3c(Nc4ccc(C(=O)N(C)CCOCCN5CCNC(C(=O)O)C5)c(C)c4)nccn23)cc1F` (centres unmarked) [Example 166, 4-[2-[2-[[4-[[3-(3-fluoro-4-methoxyphenyl)imidazo[1,2-a]pyrazin-8-yl]amino]-2-methylbenzoyl]-methylamino]ethoxy]ethyl]piperazine-2-carboxylic acid; hydrochloride] it is 4700 nM; for `COc1ccc(-c2cnc3c(Nc4ccc(C(=O)NCCOCCN)c(Br)c4)nccn23)c(F)c1F` [Example 167, N-[2-(2-aminoethoxy)ethyl]-2-bromo-4-[[3-(2,3-difluoro-4-methoxyphenyl)imidazo[1,2-a]pyrazin-8-yl]amino] benzamide; formic acid] it is 52 nM.
On to `CCc1cc(Nc2nccn3c(-c4ccc(OC)c(F)c4F)cnc23)ccc1C(=O)NCCN(C)CCN` [Example 168, N-[2-[2-aminoethyl (methyl)amino]ethyl]-4-[[3-(2,3-difluoro-4-methoxyphenyl)imidazo[1,2-a]pyrazin-8-yl]amino]-2-ethylbenzamide; hydrochloride], for which the IC90 stood at 120 nM.
For `CCc1cc(Nc2nccn3c(-c4ccc(OC)c(F)c4F)cnc23)ccc1C(=O)NCCOCCN(C)C` [Example 169, 4-[[3-(2,3-difluoro-4-methoxyphenyl)imidazo[1,2-a]pyrazin-8-yl]amino]-N-[2-[2-(dimethylamino)ethoxy]ethyl]-2-ethylbenzamide], the concentration for an effect of 90% (IC90) came out at 130 nM.
The figure for `CCc1cc(Nc2nccn3c(-c4ccc(OC(F)F)c(F)c4F)cnc23)ccc1C(=O)NCCNCCN` [Example 170, N-[2-(2-aminoethylamino)ethyl]-4-[[3-[4-(difluoro-methoxy)-2,3-difluorophenyl]imidazo[1,2-a]pyrazin-8-yl]amino]-2-ethylbenzamide; hydrochloride] is 280 nM.
The figure for `COc1ccc(-c2cnc3c(Nc4ccc5c(c4)CCN(CCOCCN)C5=O)nccn23)c(F)c1F` [Example 171, 2-[2-(2-aminoethoxy)ethyl]-6-[[3-(2,3-difluoro-4-methoxyphenyl)imidazo[1,2-a]pyrazin-8-yl]amino]-3,4-dihydroiso-quinolin-1-one;2,2,2-trifluoroacetic acid] is 290 nM; for `CCc1cc(Nc2nccn3c(-c4ccc(OCC(=O)OC)c(F)c4F)cnc23)ccc1C(=O)NCCOCCN` [Example 172, formic acid; methyl 2-[4-[8-[4-[2-(2-aminoethoxy)ethylcarbamoyl]-3-ethylanilino]imidazo[1,2-a]pyrazin-3-yl]-2,3-difluorophenoxy] acetate] it is 310 nM; for `COc1ccc(-c2cnc3c(Nc4ccc(C(=O)NCCOCCN)c(CC(F)F)c4)nccn23)cc1F` [Example 173, N-[2-(2-aminoethoxy)ethyl]-2-(2,2-difluoroethyl)-4-[[3-(3-fluoro-4-methoxyphenyl)imidazo[1,2-a]pyrazin-8-yl]amino] benzamide; formic acid] it is 370 nM.
The figure for `CCc1cc(Nc2nccn3c(-c4ccc(OC(F)F)c(F)c4F)cnc23)ccc1C(=O)NCCNCCO` [Example 174, 4-[[3-[4-(difluoromethoxy)-2,3-difluorophenyl]imidazo[1,2-a]pyrazin-8-yl]amino]-2-ethyl-N-[2-(2-hydroxy-ethylamino)ethyl]benzamide; hydrochloride] is 590 nM; for `CN(CCOCCN1CCC(C(=O)O)CC1)C(=O)c1ccc(Nc2nccn3c(-c4ccc(OCC#N)c(F)c4F)cnc23)cc1Cl` [Example 175, 1-[2-[2-[[2-chloro-4-[[3-[4-(cyanomethoxy)-2,3-difluorophenyl]imidazo[1,2-a]pyrazin-8-yl]amino]benzoyl]-methylamino]ethoxy]ethyl] piperidine-4-carboxylic acid; formic acid] it is 1100 nM; for `CN(CCOCCN1CCCC(C(=O)O)C1)C(=O)c1ccc(Nc2nccn3c(-c4ccc(OCC#N)c(F)c4F)cnc23)cc1Cl` (centres unmarked) [Example 176, 1-[2-[2-[[2-chloro-4-[[3-[4-(cyanomethoxy)-2,3-difluorophenyl]imidazo[1,2-a]pyrazin-8-yl]amino]benzoyl]-methylamino]ethoxy]ethyl] piperidine-3-carboxylic acid; formic acid] it is 1200 nM.
In the case of `N#CCOc1ccc(-c2cnc3c(Nc4ccc(C(=O)NCCOCCN5CCNC(C(=O)O)C5)c(Cl)c4)nccn23)c(F)c1F` (centres unmarked) [Example 177, 4-[2-[2-[[2-chloro-4-[[3-[4-(cyanomethoxy)-2,3-difluorophenyl]imidazo[1,2-a]pyrazin-8-yl]amino]benzoyl]amino]ethoxy]ethyl]piperazine-2-carboxylic acid; formic acid], the concentration for an effect of 90% (IC90) stood at 2300 nM.

Usually IC90 stands for the concentration at which the effect reaches the 90% level.

These data come from patent publication US20230017532A1 (Hoffmann-La Roche Inc., priority 2018, published 2023).
